Data taken from paper PMC12396409, “Screening and hit evaluation of a microbial metabolite library against the pathogenic Plasmodium falciparum and Toxoplasma gondii parasites” (International Journal for Parasitology: Drugs and Drug …, 2025).
Read-outs that look alike come from different tables or passages of the source.

Legend:
[1] = tested on: P. falciparum 3D7 parasites; assay: P. falciparum growth inhibition assay, 2-cycle (120 h treatment), delayed-death screen and dose-response; format: cell-based, Plasmodium falciparum
[2] = tested on: T. gondii RH strain (RH-Tub-eYFP) tachyzoites; assay: microbe, parasite or virus in culture; format: cell-based, Toxoplasma gondii; details: T. gondii, 72 h; for Tg_72h_%Growth_Rep1 / Tg_72h_%Growth_Rep2 / percent parasite growth at 2 µg/mL: % growth; for percent parasite growth at 2 µg/mL: Toxoplasma gondii
[3] = tested on: P. falciparum 3D7 parasites; assay: P. falciparum growth inhibition assay, 1-cycle (72 h treatment), SYBR DNA staining (library screen at 2 μg/mL and dose-response); format: cell-based, Plasmodium falciparum
[4] = P. falciparum, 120 h, parasite screen 2 μg/mL, % growth, replicate 1
[5] = P. falciparum, 120 h, parasite screen 2 μg/mL, % growth, replicate 2
[6] = parasite screen 2 μg/mL, replicate 1
[7] = parasite screen 2 μg/mL, replicate 2
[8] = P. falciparum, 72 h, parasite screen 2 μg/mL, % growth, replicate 1
[9] = P. falciparum, 72 h, parasite screen 2 μg/mL, % growth, replicate 2
[10] = P. falciparum 3D7, 120 h, parasite screen at 2 μg/mL, % growth, replicate 1
[11] = P. falciparum 3D7, 120 h, parasite screen at 2 μg/mL, % growth, replicate 2
[12] = parasite screen at 2 μg/mL, replicate 1
[13] = parasite screen at 2 μg/mL, replicate 2
[14] = P. falciparum 3D7, 72 h, parasite screen at 2 μg/mL, % growth, replicate 1
[15] = P. falciparum 3D7, 72 h, parasite screen at 2 μg/mL, % growth, replicate 2
[16] = 2 μg/mL, values are growth (% of control)
[17] = parasite screen 2 μg/mL, replicate 1, read-out: Tg_72h_%Growth_Rep1
[18] = parasite screen 2 μg/mL, replicate 2, read-out: Tg_72h_%Growth_Rep2
[19] = Plasmodium falciparum, 3D7, 120 h, P. falciparum, 120 h, parasite screen 2 μg/mL, % growth, replicate 1, read-out: Pf_120h_%Growth_Rep1
[20] = Plasmodium falciparum, 3D7, 120 h, P. falciparum, 120 h, parasite screen 2 μg/mL, % growth, replicate 2, read-out: Pf_120h_%Growth_Rep2
[21] = Plasmodium falciparum, 3D7, 72 h, P. falciparum, 72 h, parasite screen 2 μg/mL, % growth, replicate 1, read-out: Pf_72h_%Growth_Rep1
[22] = Plasmodium falciparum, 3D7, 72 h, P. falciparum, 72 h, parasite screen 2 μg/mL, % growth, replicate 2, read-out: Pf_72h_%Growth_Rep2

CCO[C@@H]1[C@@H](OC)[C@H](C)O[C@@H](O[C@H]2C[C@H]3[C@@H]4C=C5C(=O)[C@H](C)[C@@H](O)CCC[C@H](CC)OC(=O)C[C@H]5[C@@H]4C=C(C)[C@@H]3C2)[C@@H]1OC [spinosyn L 17-pseudoaglycone, 3'-Ethoxy-]
Pf_120h_%Growth_Rep1 [1, 4]: 6.02% | Pf_120h_%Growth_Rep2 [1, 5]: 1.27% | Tg_72h_%Growth_Rep1 [2, 6]: 97.87% | Tg_72h_%Growth_Rep2 [2, 7]: 88.47% | Pf_72h_%Growth_Rep1 [3, 8]: 17.82% | Pf_72h_%Growth_Rep2 [3, 9]: 8.15%

CSc1cc(=O)n2c3ccccc3c3ccnc1c32 [BIA-M1959]
Pf_120h_%Growth_Rep1 [1, 10]: 177.81% | Pf_120h_%Growth_Rep2 [1, 11]: 100.67% | Tg_72h_%Growth_Rep1 [2, 12]: 88.90% | Tg_72h_%Growth_Rep2 [2, 13]: 111.29% | Pf_72h_%Growth_Rep1 [3, 14]: 72.92% | Pf_72h_%Growth_Rep2 [3, 15]: 92.02%

CN1CCC2(c3cccc4c3NC3N(C)CCC43c3cccc4c3NC3N(C)CCC43C34CCN(C)C3Nc3c(C56CCN(C)C5Nc5ccccc56)cccc34)c3ccccc3NC12 (stereo not drawn) [Psychotridine]
Pf_120h_%Growth_Rep1 [1, 4]: 15.63% | Pf_120h_%Growth_Rep2 [1, 5]: 4.30% | Mean ([2]; 2 μg/mL, mean of both replicates, growth (% of control)): 39.57 | Replicate 1 [2, 16]: 17.15 | Replicate 2 [2, 16]: 61.99 | Tg_72h_%Growth_Rep1 [2, 6]: 17.15% | Tg_72h_%Growth_Rep2 [2, 7]: 61.99% | Pf_72h_%Growth_Rep1 [3, 8]: 4.01% | Pf_72h_%Growth_Rep2 [3, 9]: -3.25%

Cc1cc(O)c2c(c1)C(=O)C13C(=C2O)C(=O)C2C(O)C1C1C(O)C3C(=O)C3=C(O)c4c(O)cc(C)cc4C(=O)C321 (stereo not drawn) [Rugulosin - form]
Pf_120h_%Growth_Rep1 [1, 4]: 0.79% | Pf_120h_%Growth_Rep2 [1, 5]: 8.22% | Tg_72h_%Growth_Rep1 [2, 6]: 9.47% | Tg_72h_%Growth_Rep2 [2, 7]: 14.48% | Pf_72h_%Growth_Rep1 [3, 8]: 4.91% | Pf_72h_%Growth_Rep2 [3, 9]: 2.27%

CO[C@H]1[C@H](O)[C@@H](O)[C@H](n2c3c(Cl)cccc3c3c4c(c5c6cccc(Cl)c6[nH]c5c32)C(=O)NC4=O)O[C@@H]1CO [Rebeccamycin]
3) Fold change (72 h/120 h) ([1]; P. falciparum, growth at 72 h / growth at 120 h, 2 μg/mL): 1.2 | activity at 2 µg/mL ([1]; Plasmodium falciparum, 3D7; P. falciparum, 2 μg/mL, 120 h; read-out: 2) Growth (%) at 120 h): 18.4% | activity at 2 µg/mL ([1]; Plasmodium falciparum, 3D7, P. falciparum, 120 h, parasite screen 2 μg/mL, % growth, replicate 1, read-out: Pf_120h_%Growth_Rep1): 22.3% | activity at 2 µg/mL ([1]; Plasmodium falciparum, 3D7, P. falciparum, 120 h, parasite screen 2 μg/mL, % growth, replicate 2, read-out: Pf_120h_%Growth_Rep2): 14.5% | percent parasite growth at 2 µg/mL [2, 17]: 35.4% | percent parasite growth at 2 µg/mL [2, 18]: 70.9% | activity at 2 µg/mL ([3]; Plasmodium falciparum, 3D7; P. falciparum, 2 μg/mL, 72 h; read-out: 1) Growth (%) at 72 h): 21.6% | activity at 2 µg/mL ([3]; Plasmodium falciparum, 3D7, P. falciparum, 72 h, parasite screen 2 μg/mL, % growth, replicate 1, read-out: Pf_72h_%Growth_Rep1): 22.6% | activity at 2 µg/mL ([3]; Plasmodium falciparum, 3D7, P. falciparum, 72 h, parasite screen 2 μg/mL, % growth, replicate 2, read-out: Pf_72h_%Growth_Rep2): 20.5%

CC[C@@H]1CCN[C@H](C(=O)N[C@@H]([C@H]2O[C@H](SC)[C@H](O)[C@@H](O)[C@H]2O)[C@H](C)Cl)C1 [BIA-P1459]
Pf_120h_%Growth_Rep1 [1, 10]: 9.76% | Pf_120h_%Growth_Rep2 [1, 11]: 125.61% | Tg_72h_%Growth_Rep1 [2, 12]: 8.37% | Tg_72h_%Growth_Rep2 [2, 13]: 23.25% | Pf_72h_%Growth_Rep1 [3, 14]: 26.60% | Pf_72h_%Growth_Rep2 [3, 15]: 41.09%

O=C(c1cc(Cl)c(Cl)[nH]1)c1c(O)cccc1O [Pyoluteorin]
activity at 2 µg/mL [1, 19]: 21.2% | activity at 2 µg/mL [1, 20]: 3.32% | percent parasite growth at 2 µg/mL [2, 17]: -1.3% | percent parasite growth at 2 µg/mL [2, 18]: -1.92% | activity at 2 µg/mL [3, 21]: 12.8% | activity at 2 µg/mL [3, 22]: 3.08%

CN(C)c1ncnc2c1ncn2[C@@H]1O[C@H](CO)[C@@H](N)[C@H]1O [Puromycin aminonucleoside]
activity at 2 µg/mL [1, 19]: 69.5% | activity at 2 µg/mL [1, 20]: 57.6% | percent parasite growth at 2 µg/mL [2, 17]: -2.04% | percent parasite growth at 2 µg/mL [2, 18]: 0.2% | activity at 2 µg/mL [3, 21]: 78% | activity at 2 µg/mL [3, 22]: 105%
